Experimental findings from patent publication US9044487B2, “Hematopoietic neoplasm chemotherapy” (Eli Lilly and Company, priority 2009, dated 2015) are described below.

Read-outs that look alike come from different tables or passages of the source. Some results are limits rather than exact numbers.

Experiment [1] concerns MV4;11 leukemia xenografts. Briefly: Antitumor efficacy in MV4;11 leukemia xenografts. It counts as in vivo, female CD-1 nu/nu strain mice. The note with it: vehicle control 233 ± 23.2. Here is the method: Cultured cells (ATCC) are implanted subcutaneously in the rear flank of female CD-1 nu/nu strain mice which have been acclimated for one week in the animal facility after receipt from the vendor. […] The tumors are measured 2 times per week by electronic calipers to plot growth curves. Animals are also monitored for fluctuations in body weight and survival.

The subject of experiment [2] is HEL 92.1.7. Briefly: Caspase 3 activity (Apo-ONE Homogeneous Caspase-3/7 Assay). It counts as cell-based, human. The note with it: relative to untreated controls. The text has this: (§1) Apoptosis or programmed cell death is characterized by a set of biochemical reactions, one of which is the induction of caspases. Activated caspases are proteases that participate in a cascade of cleavage events that disable key enzymes responsible for cell homeostasis and repair. Caspases 3 and 7 play key effector roles in apoptosis and can be detected and measured by a fluorescent biochemical assay. The increase of Caspase-3/7 activity in cells is directly correlated to apoptotic activity. (D. W. Nicholson, et al., Nature, 376, 37-43 (1995)) The Promega Apo-ONE Homogeneous Caspase-3/7 Assay Kit is used (Catalog #G7791). The assay buffer consists of 30 mM HEPES (N-(2-hydroxyethyl)piperazine-N′-(2-ethanesulfonic acid) pH 7.4, 150 mM NaCl, 50 mM KCl, 10 mM MgCl2, 0.4 mM EGTA (ethylene glycol tetraacetic acid), 0.5% Nonidet P40 (octylphenolpoly(ethyleneglycol ether)), 0.1% CHAPS (3-[(3-Cholamidopropyl)dimethylammonio]-1-propanesulfonate hydrate and 10% sucrose, which lyses/permeabilizes cultured cells and a caspase 3/7 substrate, Z-DEVD (Z-Asp(OMe)-Glu(OMe)-Val-Asp(OMe)), coupled to a profluorescent rhodamine 110. When the buffer-substrate mixture is added to a test sample, the cleavage and subsequent removal of the DEVD peptides by caspase 3/7 activity results in intense fluorescence of the rhodamine 110 leaving group, which is detected by excitation at 490 nm. The amount of fluorescent product is proportional to the amount of caspase 3/7 cleavage activity in the sample.
(§2) To measure the apoptotic effect of test compounds, tumor cells are plated at 1×10^4 cells per well in 96 well plates and incubated overnight at 37° C., with 5% CO2. Tumor cells are treated with test compound at desired concentrations in triplicate, including untreated/negative control wells. The assay plates are re-incubated for 48 hrs. At the end of the incubation period, a mixture of the assay buffer and substrate is added to each sample well. The fluorescence in each well is measured at an excitation wavelength of 480+/−20 nm and an emission wavelength of 530+/−25 nm. The % increase of caspase activity in treated cells is calculated relative to untreated controls.
(§3) MV4;11 is a human acute myeloid leukemia line characterized by the presence of a fusion transcript comprised of the MLL and AF4 genes and by the presence of an internal tandem duplication in the juxtamembrane region of the FLT-3 gene. RS4;11 is a human acute lymphoid leukemia cell line characterized by the presence of a fusion transcript comprised of the MLL and AF4 genes. REH is a human acute lymphoid leukemia (non-T; non-B) cell line characterized by the presence of a fusion transcript comprised of the TEL and AML1 genes. Kasumi 1 is a human acute myeloid leukemia line characterized by the presence of a fusion transcript comprised of the AML1 and ETO genes. K562 is a human chronic myelogenous leukemia cell line characterized by the presence of a fusion transcript comprised of the Bcr and Abl genes. HEL 92.1.7 is a human erythroleukemia cell line characterized by the presence of a V617F mutation in the JAK2 gene. Jurkatt is a human acute T-cell leukemia cell line. Each of the cell lines are obtained from the American Type Culture Collection (ATCC). In the following tables the term “Compound 1” or “Cmpd 1” means 7-(2,5-dihydro-4-imidazo[1,2-a]pyridine-3-yl-2,5-dioxo-1H-pyrrol-3-yl)-9-fluoro-1,2,3,4-tetrahydro-2-(1-piperidinyl-carbonyl)-pyrrolo[3,2,1-jk][1,4]benzodiazepine. The GSK-3 inhibitor [(3-(2,4-dichlorophenyl)-4-(1-methyl-1H-indol-3-yl)-1H-pyrrole-2,5-dione (SB216763), Sigma-Aldrich is used as a positive comparator control in some experiments. The compound GSK-3 Inhibitor IX, (2′Z,3′E)-6-bromoindirubin-3′-oxime (“GSK3-IX”) Calbiochem, is used as a positive control in some experiments. Both SB216763 and GSK3-IX are mentioned in the Wang et al., Nature, 455, 1205-1210 (2008) paper as evidencing positive results. […]

The subject of experiment [3] is Jurkat. Described as above. The note with it: relative to untreated controls. It counts as cell-based, human.
Description: as §1, §2, §3

Experiment [4] deals with K562. The experiment is described as above. Format: cell-based, human. The note with it: relative to untreated controls.
Description: as §1, §2, §3

The subject of another experiment is Kasumi 1. The description is as above. It counts as cell-based, human. The note with it: relative to untreated controls.
Description: as §1, §2, §3

The subject of experiment [5] is MV4;11. Described as above. It counts as cell-based, human. As to conditions: relative to untreated controls.
Description: as §1, §2, §3

Experiment [6] concerns REH. The experiment is described as above. It counts as cell-based, human. The note with it: relative to untreated controls.
Description: as §1, §2, §3

Experiment [7] deals with RS4;11. The description is as above. The note with it: relative to untreated controls. It counts as cell-based, human.
Description: as §1, §2, §3

For experiment [8], the system named is HEL 92.1.7. The experiment is described as follows: Reduction in cell viability (CellTiter-Glo Luminescent Cell Viability Assay). The note with it: 48 hrs, read-out: Reduction in cell viability after treatment - EC50 (mean of triplicates). It counts as cell-based, human. Here is the method: (§4) Cell viability is determined by the CellTiter-Glo® Luminescent Cell Viability Assay (Promega, Catalog #G7570) which is a method of estimating viable cell number based on quantitation of ATP in metabolically active cells. After cells are lysed, the mono-oxygenation of the substrate luciferin is catalyzed by the enzyme luciferase in the presence of Mg2+, ATP and molecular oxygen, resulting in the generation of a luminescent signal that is proportional to the number of viable cells in the assay wells.
(§5) To measure the viability of cells after treatment with compounds, tumor cells are plated at 2×10^4 per well in 96 well plates and incubated overnight at 37° C., with 5% CO2. Tumor cells are treated with test compound at desired concentrations in triplicate, including untreated/negative control cells. The assay plates are re-incubated for 48 hrs. At the end of the incubation period, a mixture of lysis assay buffer and substrate is added to each sample well. The luminescence in each well is measured using a microtiter plate luminometer.
(§6) MV4;11 is a human acute myeloid leukemia line characterized by the presence of a fusion transcript comprised of the MLL and AF4 genes and by the presence of an internal tandem duplication in the juxtamembrane region of the FLT-3 gene. RS4;11 is a human acute lymphoid leukemia cell line characterized by the presence of a fusion transcript comprised of the MLL and AF4 genes. REH is a human acute lymphoid leukemia (non-T; non-B) cell line characterized by the presence of a fusion transcript comprised of the TEL and AML1 genes. Kasumi 1 is a human acute myeloid leukemia line characterized by the presence of a fusion transcript comprised of the AML1 and ETO genes. K562 is a human chronic myelogenous leukemia cell line characterized by the presence of a fusion transcript comprised of the Bcr and Abl genes. […] Jurkatt is a human acute T-cell leukemia cell line. Each of the cell lines are obtained from the American Type Culture Collection (ATCC).
In general terms: Cellular ATP, detected with luciferase, serves as a proxy for viable cell number.

Experiment [9] concerns Jurkat. The experiment is described as above. The note with it: 48 hrs, read-out: Reduction in cell viability after treatment - EC50 (mean of triplicates). It counts as cell-based, human. Here is the method: as §4, §5, §6
Experiment [10] concerns K562. The experiment is described as above. Format: cell-based, human. As to conditions: 48 hrs, read-out: Reduction in cell viability after treatment - EC50 (mean of triplicates). As to the method: as §4, §5, §6
The subject of another experiment is Kasumi. Described as above. As to conditions: 48 hrs, read-out: Reduction in cell viability after treatment - EC50 (mean of triplicates). It counts as cell-based, human. As to the method:
as §4, §5, §6

Experiment [11] deals with MV4;11. The description is as above. As to conditions: 48 hrs, read-out: Reduction in cell viability after treatment - EC50 (mean of triplicates). It counts as cell-based, human. As to the method:
as §4, §5, §6

The test system of experiment [12] is REH. The description is as above. Format: cell-based, human. As to conditions: 48 hrs, read-out: Reduction in cell viability after treatment - EC50 (mean of triplicates). Here is the method:
as §4, §5, §6

In experiment [13] the test system is RS4;11. The experiment is described as above. The note with it: 48 hrs, read-out: Reduction in cell viability after treatment - EC50 (mean of triplicates). It counts as cell-based, human. Here is the method:
as §4, §5, §6

For `Nc1ccn([C@@H]2O[C@H](CO)[C@@H](O)[C@@H]2O)c(=O)n1` [Arabinosylcytosine], the “Tumor Volume at day 33 Mean ± Standard Error” value in experiment [1] (30 mg/kg IP administered every day for 14 days) came out at 129 ± 11.2 mm^3.

What is called EC50 is the concentration giving half of the maximal effect. Consider `O=C1NC(=O)C(c2cnc3ccccn23)=C1c1cn2c3c(cc(F)cc13)CN(C(=O)N1CCCCC1)CC2` [Compound 1, 7-(2,5-dihydro-4-imidazo[1,2-a]pyridine-3-yl-2,5-dioxo-1H-pyrrol-3-yl)-9-fluoro-1,2,3,4-tetrahydro-2-(1-piperidinyl-carbonyl)-pyrrolo[3,2,1-jk][1,4]benzodiazepine], for which the “% Increase in Caspase 3 after treatment with Cmpd 1 (mean of triplicates)” value worked out at 284% in the experiment with HEL 92.1.7 [2] (0.120 μM Compound 1, 48 hrs); 140% in the experiment with Jurkat [3] (0.370 μM Compound 1, 48 hrs); 1057% with K562 [4] (0.0007 μM Compound 1, 48 hrs); 133% with Kasumi 1 (0.370 μM Compound 1, 48 hrs); 188% in the experiment on MV4;11 [5] (0.010 μM Compound 1, 48 hrs); 132% in the experiment with REH [6] (0.0007 μM Compound 1, 48 hrs). The “% Increase in Caspase 3 after treatment with Cmpd 1 (mean of triplicates)” value with RS4;11 [7] (0.009 μM Compound 1, 48 hrs) is listed as 111%. In addition, the EC50 with HEL 92.1.7 [8] (Homo sapiens) was found to be 34 nM; in the experiment on Jurkat [9] (Homo sapiens), 46 nM; with K562 [10] (Homo sapiens), 46 nM; with Kasumi (Homo sapiens), 16 nM; in the experiment on MV4;11 [11] (Homo sapiens), 82 nM; in the experiment with REH [12] (Homo sapiens) it was 6 nM. Also, the EC50 with RS4;11 [13] (Homo sapiens) came out at 5 nM. Besides, the “Tumor Volume at day 33 Mean ± Standard Error” value in [1] (0.1 mg/kg IV administered twice a week, 6 cycles) was found to be 189 ± 22.3 mm^3; in experiment [1] (1 mg/kg IV administered twice a week, 6 cycles), 154 ± 15 mm^3; in experiment [1] (5 mg/kg IV administered once a week, three cycles), 167 ± 11.7 mm^3.

As to `O=C1Nc2cc(Br)ccc2/C1=C1/Nc2ccccc2/C1=N\O` [GSK3-IX, (2′Z,3′E)-6-bromoindirubin-3′-oxime], the EC50 is more than 3300 nM with HEL 92.1.7 [8]; more than 3300 nM with Jurkat [9]; more than 3300 nM in the experiment on K562 [10]; 1200 nM in the experiment on Kasumi; 200 nM with MV4;11 [11]; 1100 nM with REH [12]. The EC50 in the experiment on RS4;11 [13] is 300 nM.

In the case of `Cn1cc(C2=C(c3ccc(Cl)cc3Cl)C(=O)NC2=O)c2ccccc21` [SB216763, 3-(2,4-dichlorophenyl)-4-(1-methyl-1H-indol-3-yl)-1H-pyrrole-2,5-dione], the “% Increase in Caspase 3 after treatment with SB216763 (mean of triplicates)” value came to 250% in the experiment with HEL 92.1.7 [2] (10 μM SB216763, 48 hrs); 101% in the experiment on Jurkat [3] (10 μM SB216763, 48 hrs); 223% in the experiment with K562 [4] (20 μM SB216763, 48 hrs); 27% with Kasumi 1 (10 μM SB216763, 48 hrs); 83% with MV4;11 [5] (30 μM SB216763, 48 hrs); 113% with REH [6] (20 μM SB216763, 48 hrs). Further, in the experiment with RS4;11 [7] (20 μM SB216763, 48 hrs), the “% Increase in Caspase 3 after treatment with SB216763 (mean of triplicates)” value came to 117%. The EC50 in the experiment on HEL 92.1.7 [8] (Homo sapiens) was 11300 nM; with Jurkat [9] (Homo sapiens), more than 10000 nM; with K562 [10] (Homo sapiens), 20000 nM; in the experiment with Kasumi (Homo sapiens), 10000 nM; in the experiment with MV4;11 [11] (Homo sapiens) it was 12600 nM; in the experiment on REH [12] (Homo sapiens), 4200 nM. Besides, the EC50 in the experiment on RS4;11 [13] (Homo sapiens) came out at 4400 nM.
